Results reported in US9028880B2, “Silica nanoparticle agent conjugates” (priority 2010, dated 2015).

Key:
MCF-7 tumors = assay: In vivo tumor reduction study, MCF-7 xenograft
Description: To further study the effect of particle size, a xenograft human breast cancer model was chosen. Subcutaneous MCF-7 tumors developed on the flank of athymic nude mice were used to evaluate the antitumor efficacy of the drug-silica nanoconjugates with different sizes. The nude mice were implanted with an estrogen pellet and 1,000,000 MCF-7 cells per site. After tumors had developed to ˜40 mm^3, comparative efficacy studies were performed by dividing animals into six groups (n=20 or 24) to minimize weight and tumor size differences among the groups.
Female athymic nude, OVX, 9-week old mice were anesthetized, and prepared for implantation of the tumor cells. […]
After dosing, the animals were monitored closely, and measurements of the tumor size for each animal were performed at regular intervals using calipers without knowledge of which injection each animal had received. The tumor volume for each time point was calculated according to the formula (length)×(width)/2, where the long axis is the length, the short axis is the width. […] When an animal exited the study due to tumor size or treatment related death, the final tumor size recorded for the animal was included with the data used to calculate the mean size at subsequent time point.

[1] = tested on: LNCaP prostate adenocarcinoma cells; assay: In vitro toxicity (MTT assay); format: cell-based; details: Homo sapiens, MTT assay after 96 h, CPT or equivalent CPT
Description: 3.3. In vitro toxicity (MTT assay). LNCaP prostate adenocarcinoma cell lines were obtained from ATCC (Manassas, Va., USA). Cells were seeded in 96-well plates at 5,000 cells/well and grown in medium containing 10% fetal bovine serum at 37° C. for 24 h in a humidified 5% CO2 atmosphere. The medium was replaced with fresh medium containing CPT, CPT-NPs in concentrations ranging from 1 nM to 10 μM of CPT or equivalent CPT (CPT-NPs). At each concentration, six wells per plate were treated. The effect of the compounds on cell growth was measured by the MTT assay after 96 h. The medium was removed, the cells were rinsed with PBS, MTT solution was added at a concentration of 0.5 mg/mL, and the plates were incubated for 4 hours at 37° C. The medium was removed and the formazan crystals were solubilized in MTT solubilization solution. Absorbance was measured at 560 nm using a Victor V microplate reader (Perkin Elmer, Waltham, Mass.). The percentage of cell survival was calculated relative to untreated cells, and IC50 values were determined from plots of cell survival versus dose (Table 4).

LLC tumor [2] = assay: In vivo tumor reduction study, single i.v. injection; set-up: species or system C57Bl/6 mice; details: emulsified Cpt 30 mg/kg i.v.; all animals reached end point at about day 5
Description: The efficacy of the drug conjugated silica NPs was next evaluated using xenograft models of LLC tumor developed by s.c. injection of LLC cells in the flank of C57BL/6 mice. […] Using Cpt as a reference point, the following regimens were administrated by a single i.v. injection: a, PBS; b, PEGylated blank silica NPs; c, emulsified Cpt, 30 mg/kg; d, Cpt-NP, 200 nm, 25 mg/kg; e, Cpt-NP, 20 nm, 25 mg/kg. Tumor size and body weight were then monitored for 10 days. […] Both Cpt-NPs 20 nm and 200 nm in diameter delayed tumor growth at Day 7 and 6, respectively, with statistical significance comparing with control group receiving PBS (p<0.05 by t-test). […] All animals in free Cpt group reached end point with >20% body weight loss at about day 5.
4.5. In vivo Tumor Reduction Study. Female C57Bl/6 mice, 8-week old, were anesthetized, shaved, and prepared for implantation of the tumor cells. […] After two weeks when tumors had reached ˜300 mm^3, mice were divided into five groups of five mice, minimizing weight and tumor size difference. Tumor-bearing mice were treated by intravenous injection of PBS (1×), PEGylated blank silica NPs (250 mg/kg), emulsified free CPT (Tween 80 (5%)/DMSO (10%) in PBS (1×), 30 mg/kg), CPT-NP (200 nm, 25 mg/kg) or CPT-NP (20 nm, 25 mg/kg). […]

LLC tumor [3] = assay: In vivo tumor prevention study; set-up: species or system C57Bl/6 mice; details: s.c. co-injection with LLC cells
Description: To access the ability of Cpt-NCs to prevent establishment of a murine lung cancer in an in vivo model, Cpt-NCs were evaluated in the rapidly growing subcutaneous (s.c.) LLC tumor model in C57Bl/6 female mice. The ability of Cpt50 (5 mg/kg) to prevent LLC tumor establishment and growth was assessed by comparing to free Cpt (5 mg/kg) and LLC cancer cells alone without any treatment. The mice were s.c. injected with the mixture of [LLC and Cpt50], [LLC and Cpt] or LLC alone Animals were monitored clinically and the tumors were measured daily without knowledge of the treatment received.
Female C57Bl/6 mice, 12-13 weeks old, were anesthetized, shaved, and prepared for implantation of the tumor cells. LLC cells were collected from culture, and 750,000 cells were then mixed with Cpt50 and immediately injected subcutaneously into one flank of a mouse. The dose of equivalent Cpt was 5 mg/kg. Equivalent injections of cells with free CPT solubilized with Tween 80 (5%)/DMSO (10%) or PBS were also performed (n=5). The simultaneous injection procedure is required to assure that the cancer cells and the treatment are delivered to the same subcutaneous pocket as it would be easy to accidentally inject into different spaces when performing two separate injections.

SMILES	Day from which tumor growth delay was significant vs PBS group (MCF-7 tumors; NCs 20 mg/kg i.v. Q4d×3, Irinotecan 100 mg/kg i.p. Qwk×3, *p<0.05)	Body weight / systemic toxicity (MCF-7 tumors; NCs 20 mg/kg, Irinotecan 100 mg/kg)	IC50 [1]	body weight loss (LLC tumor [2])	Day of statistically significant difference vs LLC group (LLC tumor [3]; 5 mg/kg)	Tumor growth prevention (LLC tumor [3]; 5 mg/kg equivalent Cpt)
CCc1c2c(nc3ccc(OC(=O)N4CCC(N5CCCCC5)CC4)cc13)-c1cc3c(c(=O)n1C2)COC(=O)[C@]3(O)CC [Irinotecan]	8 days	Significant body weight loss	–	–	–	–
CC[C@@]1(O)C(=O)OCc2c1cc1n(c2=O)Cc2cc3ccccc3nc2-1 [CPT, Camptothecin]	–	–	7 nM	> 20%	20 days	complete inhibition of tumor growth after Day 20
